Laboratory results published in patent US20170119034A1, “COMPOSITIONS AND METHODS FOR MODIFYING PERCEPTION OF SWEET TASTE” (University of Florida Research Foundation, Inc., priority 2012, published 2017).

Legend:
Format in all cases: in vivo, human
[1] = tested on: tomato flavor intensity (consumer panel); assay: Tomato consumer taste panel: overall tomato flavor intensity (gLMS) versus fruit chemical content; settings: for association with flavor intensity: univariate models
Procedure: (§1) Sensory analysis. Fully ripe fruit were harvested, and used for taste panels. A random subset of fruit was used for biochemical analysis. Three biological replicates, each consisting of 2-20 fruit (depending on fruit size), were assayed for each variety. […] Panelists were between the ages of 18 and 78 with a median age of 22. […] An average of 85 (range of 66-95) of these panelists evaluated between 4-6 varieties in a session. All panelists went through a training session to familiarize them with the scaling and procedures. Tomatoes were sliced into wedges (or in halves for grape/cherry types) and each panelist was given two pieces for evaluation. Panelists took a bite of each sample, chewed and swallowed it, and rated overall liking and liking for texture. They then rated the perceived intensities of sweetness, sourness, saltiness, umami sensation, bitterness and overall tomato flavor. They were free to take as many bites as necessary to complete the assessments. They were instructed to take a bite of an unsalted cracker and a sip of water between samples. Samples were presented to the panelists in a randomized order. Hedonic ratings used the hedonic gLMS. This scale assesses the liking for tomatoes in the context of all pleasure/displeasure experiences: 0=neutral, −100=strongest disliking of any kind experienced, and +100=strongest liking of any kind experienced. Sensory intensity ratings used the gLMS (7, 8, 19).This scale assesses taste and flavor sensations in the context of all sensory experience (7): 0=no sensation, 100=strongest sensation of any kind experienced. Both scales were devised to provide valid comparisons across subjects.
(§2) Statistical analysis. The 68 chemical compounds measured in this experiment were divided into six groups based upon biochemical properties: sugars, branched chain amino acids, lipids, carotenoids, phenolics, and acids. A small number of compounds for which biosynthetic pathways are not established were assigned to one of the six classes based upon their correlations with other classified compounds. All pairwise correlations among the set of 68 compounds were calculated. Correlation coefficients were sorted using Modulated Modularity Clustering (MMC) (9) as a visual aid for identifying compounds that are closely related in this sample (FIG. 1; Table 4). Biochemical groups were examined for compounds within the group that were highly correlated and compounds that were upstream in the relevant metabolic pathways were preferentially selected.
(§3) All analyses were performed in SAS v 9.2.

[2] = tested on: perceived sweetness of tomato fruit (consumer panel); assay: Tomato consumer taste panel: perceived sweetness (gLMS) regressed on fruit chemical content; settings: for association with sweetness: tomato, univariate models
Procedure: as §1, §2, §3
In conducting the multiple regression analysis on the tomato data set, the independent variables were the sugar content (glucose+fructose), and the flavor (indicated by the retronasal perception of volatiles), while the dependent variable was the perceived sweetness.

[3] = tested on: perceived sweetness intensity of strawberry fruit (consumer panel); assay: Strawberry consumer panel: multiple regression of volatile concentration against perceived sweetness intensity independent of glucose, fructose or sucrose; settings: for FRUCTOSE t RATIO: volatile concentration regressed against perceived sweetness intensity independent of fructose; for GLUCOSE t RATIO: volatile concentration regressed against perceived sweetness intensity independent of glucose; for SUCROSE t RATIO: volatile concentration regressed against perceived sweetness intensity independent of sucrose; for negatively related to sweetness: sugar(s) of which the effect is independent: compounds negatively related to sweetness independent of at least one of the sugars; for enhancement of perceived intensity of sweetness independent of sugars: in words
Procedure: Step-wise multiple regressions of all volatile compounds against perceived intensity of sweetness is performed independent of either glucose, fructose, or sucrose concentration, separately (Table 6).
(§4) All consumer panels were approved by the University of Florida Institutional Review Board. […] Ages of panelist ranged from 18 to 71, with a median age of 24. Panelists self-classified themselves as 98 White or Caucasian, 11 Black or African-American, 1 Native American, Alaska Native or Aleutian, 41 Asian/Pacific Islander, and 15 Other. […] Fresh, fully-ripe strawberry fruit was removed from overnight 4° C. dark storage and allowed to warm to room temperature prior to sensory analysis. Each panelist was given one to two whole strawberries for evaluation, depending on cultivar availability. Panelist took a bite of each sample, chewed, and swallowed it. Ratings for overall liking and liking for texture were scaled on hedonic general labeled magnitude scale (gLMS) in the context of all pleasure/displeasure experiences. […] Scales were employed to mediate valid comparisons across subjects and sessions.
Multiple regressions were performed with the “enter” method in SPSS for identification of sweetness enhancing volatiles. Individual volatile compound concentrations were regressed using the “enter” method in SPSS Statistics (IBM Corp, Armonk, N.Y., USA).

[4] = tested on: texture liking of strawberry fruit (consumer panel); assay: Strawberry consumer panel: bivariate fit to texture liking; settings: bivariate linear fit; X = content of the substance in strawberry fruit, Y = Texture liking
Procedure: as §4
(§5) Bivariate analysis among individual measurements of samples allowed for linear fit, which includes summary of fit, analysis of variance, t-test, and correlation analysis for density ellipse. Two-way Ward hierarchical cluster analysis of all metabolite concentrations and strawberry samples accomplished in JMP.

[5] = tested on: strawberry flavor intensity (consumer panel); assay: Strawberry consumer panel: bivariate fit to strawberry flavor intensity; settings: for Parameter Estimates: Estimate: bivariate linear fit, X = content of the substance in strawberry fruit, Y = Flavor Intensity (FI)
Procedure: as §4, §5

C=CC(=O)CCCCC [1-octen-3-one]
association with flavor intensity after accounting for fructose [1]: independently significant after accounting for fructose
association with flavor intensity [1]: associated with flavor intensity in univariate models

CC1C=CC2C(C1)C2(C)C (centres unmarked) [4-carene]
association with sweetness [2]: showed evidence for association with sweetness in univariate models

C=CC(C)(O)CCC=C(C)C (centres unmarked) [78-70-6]
FRUCTOSE t RATIO [3]: 0.872
GLUCOSE t RATIO [3]: 0.7
SUCROSE t RATIO [3]: −0.1
Parameter Estimates-fit to Texture Liking: Estimate [4]: 0.007729
Parameter Estimates: Estimate [5]: 0.009457
relationship to strawberry flavor intensity / sensory perception ([5]; strawberry, in words): significant positive correlation with flavor intensity

CCCCCCCC(=O)OCC [106-32-1, ethyl octanoate]
negatively related to sweetness: sugar(s) of which the effect is independent [3]: exclusively independent of glucose

CCCCCC(=O)OC [106-70-7]
FRUCTOSE t RATIO [3]: −0.321
GLUCOSE t RATIO [3]: −0.531
SUCROSE t RATIO [3]: 0.802
Parameter Estimates-fit to Texture Liking: Estimate [4]: −0.002647
Parameter Estimates: Estimate [5]: 0.002291

CC(=O)CC(C)C [108-10-1, 4-Methyl-2-pentanone]
negatively related to sweetness: sugar(s) of which the effect is independent [3]: mutually independent of glucose and fructose

CCCCOC(=O)CC(C)C [109-19-3, butyl 3-methylbutanoate]
enhancement of perceived intensity of sweetness independent of sugars [3]: show evidence of enhancing perceived sweetness intensity independent of individual sugars

CCCCCC(C)=O [110-43-0]
FRUCTOSE t RATIO [3]: 1.054
GLUCOSE t RATIO [3]: 0.657
SUCROSE t RATIO [3]: 1.899
Parameter Estimates-fit to Texture Liking: Estimate [4]: 0.07262
Parameter Estimates: Estimate [5]: 0.06351

CCCCCCO [111-27-3]
FRUCTOSE t RATIO [3]: −1.253
GLUCOSE t RATIO [3]: −1.481
SUCROSE t RATIO [3]: −0.542
Parameter Estimates-fit to Texture Liking: Estimate [4]: −0.01204
Parameter Estimates: Estimate [5]: −0.001886

CCCCCCC=O [111-71-7, heptanal]
enhancement of perceived intensity of sweetness independent of sugars [3]: show evidence of enhancing perceived sweetness intensity independent of individual sugars

CCCCCCOC(C)=O [142-92-7, hexyl acetate]
enhancement of perceived intensity of sweetness independent of sugars [3]: mutually independent of all three sugar

CCCCC(=O)OCC [539-82-2, ethyl valerate]
enhancement of perceived intensity of sweetness independent of sugars [3]: show evidence of enhancing perceived sweetness intensity independent of individual sugars

CCCCCOC(=O)CCC [540-18-1, pentyl butyrate]
enhancement of perceived intensity of sweetness independent of sugars [3]: mutually independent of all three sugar

COC(=O)CC(C)C [556-24-1]
FRUCTOSE t RATIO [3]: 0.732
GLUCOSE t RATIO [3]: 0.88
SUCROSE t RATIO [3]: 0.972
Parameter Estimates-fit to Texture Liking: Estimate [4]: −0.03139
Parameter Estimates: Estimate [5]: 0.009438

CCCCCCCC(C)=O [821-55-6]
FRUCTOSE t RATIO [3]: −0.267
GLUCOSE t RATIO [3]: −0.467
SUCROSE t RATIO [3]: 1.192
Parameter Estimates-fit to Texture Liking: Estimate [4]: 0.09508
Parameter Estimates: Estimate [5]: 0.06252

CC(=O)OCC=C(C)C [1191-16-8, 3-methyl-2-buten-1-yl acetate]
negatively related to sweetness: sugar(s) of which the effect is independent [3]: exclusively independent of sucrose

CC/C=C\CO [1576-95-0]
FRUCTOSE t RATIO [3]: −0.186
GLUCOSE t RATIO [3]: −0.231
SUCROSE t RATIO [3]: −0.304
Parameter Estimates-fit to Texture Liking: Estimate [4]: 0.1369
Parameter Estimates: Estimate [5]: −0.006042

C=CC(=O)CC [1629-58-9, 1-penten-3-one]
enhancement of perceived intensity of sweetness independent of sugars [3]: mutually independent of all three sugar

CCCCCCCCC1CCC(=O)O1 (centres unmarked) [2305-05-7, 5-octyldihydro-2(3H)-furanone]
enhancement of perceived intensity of sweetness independent of sugars [3]: mutually independent of all three sugar

CCCCC/C=C/C=O [2548-87-0]
Parameter Estimates-fit to Texture Liking: Estimate [4]: 1.345
Parameter Estimates: Estimate [5]: 0.6039

CCCCCCOC(=O)CCC [2639-63-6, hexyl butyrate]
enhancement of perceived intensity of sweetness independent of sugars [3]: mutually independent of all three sugar

C=C[C@]1(C)CC[C@H](C(C)(C)O)O1 [5989-33-3]
Parameter Estimates-fit to Texture Liking: Estimate [4]: 0.6605
Parameter Estimates: Estimate [5]: 0.7378

CCCCCCCCOC(=O)CC(C)C [7786-58-5, octyl 3-methylbutanoate]
enhancement of perceived intensity of sweetness independent of sugars [3]: show evidence of enhancing perceived sweetness intensity independent of individual sugars

C=C(C)C1CC=C(COC(C)=O)CC1 (centres unmarked) [15111-96-3]
Parameter Estimates-fit to Texture Liking: Estimate [4]: −0.1056
Parameter Estimates: Estimate [5]: −0.2365

CCCCC/C=C\C=O [20664-46-4]
Parameter Estimates-fit to Texture Liking: Estimate [4]: −0.04121
Parameter Estimates: Estimate [5]: 0.03985

CCC(O)C(=O)OC (centres unmarked) [29674-47-3]
Parameter Estimates-fit to Texture Liking: Estimate [4]: 0.02693
Parameter Estimates: Estimate [5]: 0.207

CCCCCCCCOC(=O)C(C)CC (centres unmarked) [29811-50-5]
Parameter Estimates-fit to Texture Liking: Estimate [4]: −0.1411
Parameter Estimates: Estimate [5]: 0.1055

C=CC(C)(O)CC/C=C(\C)CCC=C(C)C (centres unmarked) [40716-66-3]
Parameter Estimates-fit to Texture Liking: Estimate [4]: 0.01941
Parameter Estimates: Estimate [5]: 0.01223

CC=C(C)C(=O)OCC [55514-48-2]
Parameter Estimates-fit to Texture Liking: Estimate [4]: −2.984
Parameter Estimates: Estimate [5]: −0.1506

CCCC(=O)OC(C)CCC (centres unmarked) [60415-61-4, 2-pentanyl butyrate]
enhancement of perceived intensity of sweetness independent of sugars [3]: mutually independent of all three sugar

O=C(O)CC(O)(CC(=O)O)C(=O)O [Citric]
Parameter Estimates-fit to Texture Liking: Estimate [4]: −0.001831
Parameter Estimates: Estimate [5]: 0.01293

O=C(O)CC(O)C(=O)O (centres unmarked) [Malic]
Parameter Estimates-fit to Texture Liking: Estimate [4]: 0.05905
Parameter Estimates: Estimate [5]: 0.001142

c1ccc2scnc2c1 [benzothiazole]
association with flavor intensity [1]: associated with flavor intensity in univariate models

O=C(O)CC(O)(CC(=O)O)C(=O)O [citric acid]
association with flavor intensity after accounting for fructose [1]: independently significant after accounting for fructose
association with flavor intensity [1]: associated with flavor intensity in univariate models

C=CCc1ccc(O)c(OC)c1 [eugenol]
association with sweetness [2]: showed evidence for association with sweetness in univariate models

COc1ccccc1O [guaiacol]
association with sweetness [2]: showed evidence for association with sweetness in univariate models

CCCCCCC=O [heptaldehyde]
association with sweetness [2]: showed evidence for association with sweetness in univariate models

CCCCCCCCC=O [nonyl aldehyde]
t ([2]; multiple regression of volatile against perceived sweetness of tomato, independent of the measures of sugar): 1.148

CCC(C)OC(C)=O (centres unmarked) [sec-butyl acetate]
association with flavor intensity after accounting for fructose ([1]; listed as 2-butylacetate): independently significant after accounting for fructose

CCCCC/C=C/C=C/C=O [trans,trans-2,4-decadienal]
association with flavor intensity after accounting for fructose [1]: independently significant after accounting for fructose
association with flavor intensity [1]: associated with flavor intensity in univariate models

C/C=C/C(=O)C1=C(C)C=CCC1(C)C [β-damascenone]
association with tomato flavor intensity ([1]; volatiles with high odor unit values): not associated with tomato flavor intensity
